The record followed here is article PMC8279492, “Quinolinonyl Non-Diketo Acid Derivatives as Inhibitors of HIV-1 Ribonuclease H and Polymerase Functions of Reverse Transcriptase” (Journal of Medicinal Chemistry, 2021).

Structures are written as SMILES. Where two headings read alike, the source gives them in different places.

Data set [1] concerns the target T1, HIV-1 RT-associated RNase H activity (Human immunodeficiency virus type 1 group M subtype B, UniProt P03366).
T1 construct: His-tagged p66/p51 HIV-1 RT group M subtype B; His; made in house; host or cells: Escherichia coli M15
The experiment in a line: biochemical. It counts as biochemical. Here is the method:
(11) and β-thujaplicinol (BTP) used as positive controls.
His-tagged p66/p51 HIV-1 RT group M subtype B coded in a p6HRT-prot plasmid was expressed in the Escherichia coli strain M15.[65] Heterodimeric RTs were expressed essentially and purified as described.[66]
The HIV-1 RT-associated RNase H activity was measured as described.[68] Briefly, the reaction was carried out in a black 96-well plate in a total volume of 100 μL. […] Experiments were performed in duplicate and replicated at least two times. Data were analyzed as described.[36]

Data set [2] is described as follows: Compounds' toxicity, CellTiter 96 AQueous One Solution Cell Proliferation Assay. The data set is classed as cell-based. As to conditions: human, HeLa-CD4-LTR-β-gal cells. Here is the method:
(§1) HIV-1 replication was monitored using HeLa-CD4-LTR-β-gal reporter cells as previously described.[69] Briefly, β-galactosidase activity was monitored 24 h post infection using a replication-competent HIV produced in-house (H9-laï coculture) and a serial dilution of molecules or an equivalent volume of DMSO. In parallel, compounds’ toxicity was determined at 24 h in the same cell line using CellTiter 96 AQueous One Solution Cell Proliferation Assay (Promega, France).

Data set [3] concerns HIV-1 replication. Put plainly: HIV-1 replication in HeLa-CD4-LTR-β-gal reporter cells. The data set is classed as cell-based. As to conditions: read-out: antiviral activity EC50. Here is the method: as §1
The target of data set [4] is HIV-1 IN (Human immunodeficiency virus type 1 group M subtype B, UniProt P12497). Put plainly: biochemical. Here is the method: His-tagged NL4-3 IN was expressed from a pET15b plasmid in the E. coli BL21 pLys strain. Recombinant protein was purified as previously described[67] following a batch preparation on Ni-NTA beads (Qiagen, Paris, France).
Both oligonucleotides were purchased from Integrated DNA Technologies, Inc. (Coralville, IA), and the gel was purified in-house. ST reactions were performed by adding molecules or an equivalent volume of 100% dimethyl sulfoxide (DMSO, used as the drug solvent) to a mixture of 20 nM duplex DNA substrate and 400 nM IN in 50 mM MOPS pH 7.2, 7.5 mM MgCl2, and 14 mM 2-mercaptoethanol. Mixtures were incubated at 37 °C for 2 h, and the reaction was quenched by addition of an equal volume of loading buffer [formamide containing 1% sodium dodecyl sulfate (SDS), 0.25% bromophenol blue, and xylene cyanol]. […] Dried gels were visualized using a FLA5000 (Fuji Photo Film, Tokyo, Japan). Densitometric analyses were performed using ImageQuant 5.1 software from GE Healthcare.

[5] abbreviates: anti-RH activity (IC50 ± SD), HIV-1 RT-associated RNase H activity, dose-response curves, no preincubation.
Where [6] appears, read: CC50 (cytotoxic concentration 50%), 24 h.
The mark [7] stands for this setting: Human immunodeficiency virus 1, HeLa-CD4-LTR-β-gal cells, 24 h post infection.
[8] abbreviates: HIV-1 RT-associated RNase H activity, dose-response curves, no preincubation.

With `O=C(O)c1cn(Cc2ccc(F)cc2)c2ccccc2c1=O` [4a, 1-(4-Fluorobenzyl)-4-oxo-1,4-dihydroquinoline-3-carboxylic Acid], the IC50 in data set [1] (setting [5]) was over 100 µM.
For `N#Cc1ccc2c(c1)c(=O)c(C(=O)O)cn2Cc1ccc(F)cc1` [4b, 6-Cyano-1-(4-fluorobenzyl)-4-oxo-1,4-dihydroquinoline-3-carboxylic Acid], in data set [1] (setting [5]), the IC50 is over 100 µM.
`O=C(O)c1cn(Cc2ccc(F)cc2)c2ccc(C(F)(F)F)cc2c1=O` [4c, 1-(4-Fluorobenzyl)-4-oxo-6-(trifluoromethyl)-1,4-dihydroquinoline-3-carboxylic Acid]: in data set [1] (setting [5]), the IC50 is over 100 µM.
As to `CC(=O)c1ccc2c(c1)c(=O)c(C(=O)O)cn2Cc1ccc(F)cc1` [4d, 6-Acetyl-1-(4-fluorobenzyl)-4-oxo-1,4-dihydroquinoline-3-carboxylic Acid], the CC50 at 24 h in data set [2] (setting [6]) is over 200 µM; in data set [2] (supplement CSV, read-out: CC50), over 50 µM. The EC50 in data set [3] (setting [7]) is over 50 µM. The IC50 in data set [4] is over 100 µM; in data set [1] (setting [5]) it was 16.3 ± 1.42 µM.
For `O=C(O)c1cn(Cc2ccc(F)cc2)c2ccc([N+](=O)[O-])cc2c1=O` [4e, 1-(4-Fluorobenzyl)-6-nitro-4-oxo-1,4-dihydroquinoline-3-carboxylic Acid], the IC50 in data set [1] (setting [5]) was 56 ± 4 µM.
Same read-out and setting: next, `CS(=O)(=O)c1ccc2c(c1)c(=O)c(C(=O)O)cn2Cc1ccc(F)cc1` [4f, 1-(4-Fluorobenzyl)-6-(methylsulfonyl)-4-oxo-1,4-dihydroquinoline-3-carboxylic Acid]: 100 µM; `O=C(O)c1cn(Cc2ccc(F)cc2)c2ccc(O)cc2c1=O` [4g, 1-(4-Fluorobenzyl)-6-hydroxy-4-oxo-1,4-dihydroquinoline-3-carboxylic Acid]: 74 ± 9 µM.
Regarding `COc1ccc2c(c1)c(=O)c(C(=O)O)cn2Cc1ccc(F)cc1` [4h, 1-(4-Fluorobenzyl)-6-methoxy-4-oxo-1,4-dihydroquinoline-3-carboxylic Acid], the “anti-RH activity (IC50 ± SD)” value in data set [1] (setting [8]) was “no activity”. The concentration for half-maximal inhibition (IC50) in data set [1] (setting [5]) is over 100 µM.
Compound `O=C(O)c1cn(Cc2ccc(F)cc2)c2ccc(Oc3ccccc3)cc2c1=O` [4i, 1-(4-Fluorobenzyl)-4-oxo-6-phenoxy-1,4-dihydroquinoline-3-carboxylic Acid] showed an IC50 in data set [1] (setting [5]) of 32 ± 11 µM.
The same measure, in the same setting: to `CN(C)CCCOc1ccc2c(c1)c(=O)c(C(=O)O)cn2Cc1ccc(F)cc1` [4j, 6-(3-(Dimethylamino)propoxy)-1-(4-fluorobenzyl)-4-oxo-1,4-dihydroquinoline-3-carboxylic Acid] belongs 15.4 ± 3 µM.
In the case of `O=C(O)c1cn(Cc2ccc(F)cc2)c2ccc(OCc3ccc4ccccc4c3)cc2c1=O` [4p, 1-(4-Fluorobenzyl)-6-(naphthalen-2-ylmethoxy)-4-oxo-1,4-dihydroquinoline-3-carboxylic Acid], the CC50 at 24 h in data set [2] (setting [6]) is over 200 µM; in data set [2] (supplement CSV, read-out: CC50), over 50 µM. In addition, the EC50 in data set [3] (setting [7]) was over 50 µM. The IC50 in data set [1] (RH IC50 (uM), supplement CSV) worked out at 30.3 ± 1.69 µM; in data set [1] (setting [5]) it was 30.3 ± 1.7 µM.
For `O=C(O)c1cn(Cc2ccc(F)cc2)c2ccc(OCCCCc3ccccc3)cc2c1=O` [4r, 1-(4-Fluorobenzyl)-4-oxo-6-(4-phenylbutoxy)-1,4-dihydroquinoline-3-carboxylic Acid], the CC50 at 24 h was over 200 µM in data set [2] (setting [6]) and over 50 µM in data set [2] (supplement CSV, read-out: CC50). Further, the EC50 in data set [3] (setting [7]) was over 50 µM. For the same compound, inhibition in data set [1] (setting [5]) was half-maximal at 8.27 ± 0.45 µM (IC50).
`CCOC(=O)c1cn(Cc2ccc(F)cc2)c2ccc(C#N)cc2c1=O` [5b, Ethyl 6-Cyano-1-(4-fluorobenzyl)-4-oxo-1,4-dihydroquinoline-3-carboxylate] gave an IC50 in data set [1] (setting [5]) of over 100 µM.
The same measure, in the same setting: next, `CCOC(=O)c1cn(Cc2ccc(F)cc2)c2ccc(C(F)(F)F)cc2c1=O` [5c, Ethyl 1-(4-Fluorobenzyl)-4-oxo-6-(trifluoromethyl)-1,4-dihydroquinoline-3-carboxylate]: 59 ± 5 µM.
Turning to `CCOC(=O)c1cn(Cc2ccc(F)cc2)c2ccc([N+](=O)[O-])cc2c1=O` [5e, Ethyl 1-(4-Fluorobenzyl)-6-nitro-4-oxo-1,4-dihydroquinoline-3-carboxylate], the midpoint of inhibition in data set [1] (setting [5]), the IC50, lay at 47.8 ± 10 µM.
Still for that read-out and setting: next, `CCOC(=O)c1cn(Cc2ccc(F)cc2)c2ccc(S(C)(=O)=O)cc2c1=O` [5f, Ethyl 1-(4-Fluorobenzyl)-6-(methylsulfonyl)-4-oxo-1,4-dihydroquinoline-3-carboxylate]: over 100 µM.
On the same count and under the same terms, next, `CCOC(=O)c1cn(Cc2ccc(F)cc2)c2ccc(O)cc2c1=O` [5g, Ethyl 1-(4-Fluorobenzyl)-6-hydroxy-4-oxo-1,4-dihydroquinoline-3-carboxylate]: over 100 µM.
On to `CCOC(=O)c1cn(Cc2ccc(F)cc2)c2ccc(OC)cc2c1=O` [5h, Ethyl 1-(4-Fluorobenzyl)-6-methoxy-4-oxo-1,4-dihydroquinoline-3-carboxylate], for which the “anti-RH activity (IC50 ± SD)” value in data set [1] (setting [8]) is “no activity”. This compound also yielded an IC50 in data set [1] (setting [5]) of over 100 µM.
The compound `CCOC(=O)c1cn(Cc2ccc(F)cc2)c2ccc(Oc3ccccc3)cc2c1=O` [5i, Ethyl 1-(4-Fluorobenzyl)-4-oxo-6-phenoxy-1,4-dihydroquinoline-3-carboxylate] gave an IC50 in data set [1] (setting [5]) of 45.5 ± 1.5 µM.
As to `CCOC(=O)c1cn(Cc2ccc(F)cc2)c2ccc(OCCCN(C)C)cc2c1=O` [5j, Ethyl 6-(3-(Dimethylamino)propoxy)-1-(4-fluorobenzyl)-4-oxo-1,4-dihydroquinoline-3-carboxylate], the IC50 in data set [1] (setting [5]) was over 100 µM.
In turn, `CCOC(=O)c1cn(Cc2ccc(F)cc2)c2ccc(/C=C/C(=O)c3ccccc3)cc2c1=O` [5k, (E)-Ethyl 1-(4-Fluorobenzyl)-4-oxo-6-(3-oxo-3-phenylprop-1-en-1-yl)-1,4-dihydroquinoline-3-carboxylate] came in with a CC50 at 24 h in data set [2] (setting [6]) of over 100 µM. Besides, the EC50 in data set [3] (setting [7]) is over 50 µM. The same compound returned an IC50 in data set [1] (setting [5]) of 15.3 ± 1.6 µM.
For `CCOC(=O)c1cn(Cc2ccc(F)cc2)c2ccc(OCc3ccccc3)cc2c1=O` [5l, Ethyl 6-(Benzyloxy)-1-(4-fluorobenzyl)-4-oxo-1,4-dihydroquinoline-3-carboxylate] the same measures were over 100 µM, over 100 µM and 8 ± 1.6 µM.
For the compound `CCOC(=O)c1cn(Cc2ccc(F)cc2)c2ccc(OCc3cccc4ccccc34)cc2c1=O` [5o, Ethyl 1-(4-Fluorobenzyl)-6-(naphthalen-1-ylmethoxy)-4-oxo-1,4-dihydroquinoline-3-carboxylate], the CC50 at 24 h in data set [2] (setting [6]) was over 100 µM. Besides, in data set [3] (Human immunodeficiency virus 1, 24 h), the EC50 is over 100 µM. For the same compound, the IC50 in data set [1] (setting [5]) was determined as 1.49 ± 0.33 µM.
In the case of `CCOC(=O)c1cn(Cc2ccc(F)cc2)c2ccc(OCc3ccc4ccccc4c3)cc2c1=O` [5p, Ethyl 1-(4-Fluorobenzyl)-6-(naphthalen-2-ylmethoxy)-4-oxo-1,4-dihydroquinoline-3-carboxylate], the 50% cytotoxic concentration (CC50) at 24 h in data set [2] (setting [6]) was 73 ± 24 µM; in data set [2] (supplement CSV, read-out: CC50) it was over 50 µM. Also, the EC50 in data set [3] (setting [7]) was over 50 µM. The IC50 in data set [1] (setting [5]) was 19.6 µM.
The compound `CCOC(=O)c1cn(Cc2ccc(F)cc2)c2ccc(OCc3ccc4c(c3)OCO4)cc2c1=O` [5q, Ethyl 6-(Benzo[d][1,3]dioxol-5-ylmethoxy)-1-(4-fluorobenzyl)-4-oxo-1,4-dihydroquinoline-3-carboxylate] gave an IC50 in data set [1] (setting [5]) of 55.3 ± 1.7 µM.
As to `CCOC(=O)c1cn(Cc2ccc(F)cc2)c2ccc(OCCCCc3ccccc3)cc2c1=O` [5r, Ethyl 1-(4-Fluorobenzyl)-4-oxo-6-(4-phenylbutoxy)-1,4-dihydroquinoline-3-carboxylate], the CC50 at 24 h in data set [2] (setting [6]) was over 200 µM; in data set [2] (supplement CSV, read-out: CC50), over 50 µM. The EC50 in data set [3] (setting [7]) was over 16 µM. The IC50 in data set [1] (RH IC50 (uM), supplement CSV) came to 28.4 ± 4.3 µM; in data set [1] (setting [5]) it was 28.4 ± 4.3 µM.
Consider `CCOC(=O)c1cn(Cc2ccc(F)cc2)c2ccc(OCc3ccc(-c4ccccc4)cc3)cc2c1=O` [5s, Ethyl 6-([1,1′-Biphenyl]-4-ylmethoxy)-1-(4-fluorobenzyl)-4-oxo-1,4-dihydroquinoline-3-carboxylate], for which the half-inhibitory concentration (IC50) in data set [1] (setting [5]) was over 100 µM.
On the same count and under the same terms, to `CCOC(=O)c1cn(Cc2ccc(F)cc2)c2ccc(OCc3ccc(OCc4ccccc4)cc3)cc2c1=O` [5t, Ethyl 6-((4-(Benzyloxy)benzyl)oxy)-1-(4-fluorobenzyl)-4-oxo-1,4-dihydroquinoline-3-carboxylate] belongs over 100 µM; to `CC(C)c1ccc(O)c(=O)c(O)c1` [BTP, β-thujaplicinol, reference compound], 0.19 ± 0.03 µM.

The IC50 is the concentration at which inhibition is half-maximal. A low value points to greater potency. Usually CC50 stands for the concentration that lowers cell viability or growth by half. In general, EC50 refers to the concentration giving half of the maximal effect.
